In PubChem BioAssay AID318 (DTP/NCI, 2004):
“And” between values parts separate entries of the source, which are not always exact repeats. Identical values can stand only once. Inconclusive results and toxic doses are left out.

System: BDF1 mice, P815 leukemia ip, survival T/C
Assay: NCI In Vivo Anticancer Drug Screen. Data for tumor model P815 Mast Cell Leukemia (Ascitic) (intraperitoneal) in B6D2F1 (BDF1) mice
Conditions: endpoint: survival time, mean or median, higher = longer survival
Method: The antitumor activity of compounds was measured in mice bearing transplantable tumors. Survival or tumor size were measured and the results are expressed as the measurement made in the treated group (T) divided by the measurement made in the vehicle treated control group (C). The tumor model used in this assay is P815 Mast Cell Leukemia (Ascitic) (intraperitoneal) in B6D2F1 (BDF1) mice

[1] = dose: 2.0 mg/kg/injection, schedule: Q01DX010 (ip), vehicle: saline
[2] = dose: 25.0 mg/kg/injection, schedule: Q01DX010 (ip), vehicle: saline
[3] = dose: 50.0 mg/kg/injection, schedule: Q01DX010 (ip), vehicle: saline
[4] = dose: 100.0 mg/kg/injection, schedule: Q01DX010 (ip), vehicle: saline
[5] = dose: 200.0 mg/kg/injection, schedule: Q01DX010 (ip), vehicle: saline

Compound: O=C(Nc1ccc(NC(=O)Nc2ccc(C3=NCCN3)cc2)cc1)Nc1ccc(C2=NCCN2)cc1
- T/C (dose: 110.0 mg/kg/injection, schedule: Q01DX010 (ip), vehicle: saline): 113 % of control
- T/C (dose: 165.0 mg/kg/injection, schedule: Q01DX010 (ip), vehicle: saline): 113 % of control
- T/C (dose: 250.0 mg/kg/injection, schedule: Q01DX010 (ip), vehicle: saline): 100 % of control
- T/C (dose: 375.0 mg/kg/injection, schedule: Q01DX010 (ip), vehicle: saline): 104 % of control

Compound: C=CCSc1nc(N)nc2nc[nH]c12
- T/C (dose: 15.0 mg/kg/injection, schedule: Q01DX015 (ip), vehicle: other): 113 % of control
- T/C (dose: 16.0 mg/kg/injection, schedule: Q01DX015 (ip), vehicle: other): 109 % of control
- T/C (dose: 31.0 mg/kg/injection, schedule: Q01DX015 (ip), vehicle: other): 96 % of control and 107 % of control
- T/C (dose: 62.0 mg/kg/injection, schedule: Q01DX015 (ip), vehicle: other): 106 % of control and 112 % of control
- T/C (dose: 125.0 mg/kg/injection, schedule: Q01DX015 (ip), vehicle: other): 89 % of control and 91 % of control

Compound: CC1CN=C(c2ccc(NC(=O)c3ccc(C(=O)Nc4ccc(C5=NCC(C)N5)cc4)cc3)cc2)N1 (stereo not drawn)
- T/C (dose: 10.0 mg/kg/injection, schedule: Q01DX010 (ip), vehicle: saline): 165 % of control
- T/C (dose: 15.0 mg/kg/injection, schedule: Q01DX010 (ip), vehicle: saline): 156 % of control
- T/C (dose: 22.0 mg/kg/injection, schedule: Q01DX010 (ip), vehicle: saline): 182 % of control
- T/C (dose: 33.0 mg/kg/injection, schedule: Q01DX010 (ip), vehicle: saline): 186 % of control

Compound: C[C@@H]1C[C@H]2CC[C@H](O2)[C@H](C)C(=O)O[C@@H](C)C[C@@H]2CC[C@@H](O2)[C@@H](C)C(=O)O[C@H](C)C[C@H]2CC[C@H](O2)[C@H](C)C(=O)O[C@@H](C)C[C@@H]2CC[C@@H](O2)[C@@H](C)C(=O)O1
- T/C (dose: 1.5 mg/kg/injection, schedule: Q01DX015 (ip), vehicle: other): 106 % of control
- T/C (dose: 3.0 mg/kg/injection, schedule: Q01DX015 (ip), vehicle: other): 98 % of control
- T/C (dose: 6.0 mg/kg/injection, schedule: Q01DX015 (ip), vehicle: other): 100 % of control
- T/C (dose: 12.0 mg/kg/injection, schedule: Q01DX015 (ip), vehicle: other): 100 % of control

Compound: O=C(Nc1ccc(C2=NCCN2)cc1)c1cccc(C(=O)Nc2ccc(C3=NCCN3)cc2)c1
- T/C (dose: 8.0 mg/kg/injection, schedule: Q01DX010 (ip), vehicle: saline): 118 % of control
- T/C (dose: 32.0 mg/kg/injection, schedule: Q01DX010 (ip), vehicle: saline): 200 % of control and 160 % of control
- T/C (dose: 64.0 mg/kg/injection, schedule: Q01DX010 (ip), vehicle: saline): 181 % of control and 233 % of control

Compound: Nc1nc(=S)c2ncn(C3OC(CO)C(O)C3O)c2[nH]1 (stereo not drawn)
- T/C [1]: 155 % of control

Compound: O=NN(CCCl)C(=O)NCCCl
- T/C (dose: 6.25 mg/kg/injection, schedule: Q01DX010 (ip), vehicle: saline): 245 % of control and 263 % of control
- T/C (dose: 12.5 mg/kg/injection, schedule: Q01DX010 (ip), vehicle: saline): 159 % of control

Compound: O=C(Nc1ccc(C2=NCCN2)cc1)Nc1cccc(NC(=O)Nc2ccc(C3=NCCN3)cc2)c1
- T/C (dose: 120.0 mg/kg/injection, schedule: Q01DX010 (ip), vehicle: saline): 258 % of control and 276 % of control
- T/C (dose: 240.0 mg/kg/injection, schedule: Q01DX010 (ip), vehicle: saline): 88 % of control and 92 % of control

Compound: CS(=O)(=O)OCC(O)C(O)C(O)C(O)COS(C)(=O)=O (stereo not drawn)
- T/C [2]: 100 % of control
- T/C [3]: 100 % of control and 112 % of control
- T/C [4]: 95 % of control and 112 % of control
- T/C [5]: 95 % of control and 112 % of control
- T/C (dose: 400.0 mg/kg/injection, schedule: Q01DX010 (ip), vehicle: saline): 112 % of control

Compound: N#C[C@@H]1C2C=CC(CC2)[C@H]1C#N
- T/C (dose: 0.25 mg/kg/injection, schedule: Q01DX010 (ip), vehicle: saline): 100 % of control
- T/C (dose: 0.5 mg/kg/injection, schedule: Q01DX010 (ip), vehicle: saline): 100 % of control and 105 % of control
- T/C (dose: 1.0 mg/kg/injection, schedule: Q01DX010 (ip), vehicle: saline): 100 % of control
- T/C [1]: 88 % of control and 100 % of control

Compound: O=C(Nc1ccc(C2=NCCN2)cc1)c1ccc(C(=O)Nc2ccc(C3=NCCN3)cc2)c(NC(=O)c2ccc(C(=O)Nc3cc(C(=O)Nc4ccc(C5=NCCN5)cc4)ccc3C(=O)Nc3ccc(C4=NCCN4)cc3)cc2)c1
- T/C [2]: 95 % of control
- T/C [3]: 108 % of control
- T/C [4]: 95 % of control
- T/C [5]: 104 % of control
